According to patent US9556135B2, “Amino-dihydrothiazine and amino-dioxido dihydrothiazine compounds as beta-secretase antagonists and methods of use” (Amgen Inc., priority 2012, dated 2017):

Legend:
Aβ in lumbar CSF = details: after oral dosing of 30 or 90 mg, healthy volunteers; cited from earlier work
[1] = test system: pigment epithelium of the rat's eye; details: higher compound dose given for three months; cited from earlier work
Cathepsin D (Cat D) = Cathepsin D (Cat D) (Homo sapiens (Human), UniProt P07339); assay: In vitro enzymatic Cathepsin D (Cat D) FRET assay; format: biochemical; details: read-out: CatD IC50
Method: In Vitro Enzymatic Cathepsin D (Cat D) FRET (Fluorescence Resonance Energy Transfer) Assay Recombinant Cat D was expressed in CHO cells. […] The Cat D enzyme (9 nM) is pre-incubated for one hour with inhibitors, typically in about 1 uL of DMSO according to a serial dilution, is added thereto. […] The FRET assay is terminated with by addition of Tris buffer, which raises the pH to neutrality, and the fluorescence is determined. The FRET substrate is a peptide with commercially available fluorophore and quencher, on opposite sides of the BACE cleavage site. The Cat D substrate peptide sequence is based on sequence #1 of Table 1 from Gulnik et al. […] Where available, the in-vitro Cat D FRET assay data for each of the Examples, conducted by the first procedure, is provided.

[2] = test system: Aβ40 in conditioned medium of cells stably expressing Amyloid Precursor Protein (APP); assay: In vitro BACE cell-based assay (HEK cell assay), Aβ40 sandwich ELISA
Method: In Vitro BACE Cell-Based Assay
The cell-based assay measures inhibition or reduction of Aβ40 in conditioned medium of test compound treated cells expressing amyloid precursor protein.
Cells stably expressing Amyloid Precursor Protein (APP) were plated at a density of 40K cells/well in 96 well plates (Costar). The cells were cultivated for 24 hours at 37° C. and 5% CO2 in DMEM supplemented with 10% FBS. The test compounds were then added to cells in 10-point dose response concentrations with the starting concentration being either 100 μM or 10 μM. The compounds were diluted from stock solutions in DMSO and the final DMSO concentration of the test compounds on cells was 0.1%. After 24 h of incubation with the test compounds the supernatant conditioned media was collected and the Aβ 40 levels were determined using a sandwich ELISA. The IC50 of the compound was calculated from the percent of control or percent inhibition of Aβ 40 as a function of the concentration of the test compound.
The sandwich ELISA to detect Aβ 40 was performed in 96 well microtiter plates, which were pre-treated with goat anti-rabbit IgG (Pierce). The capture and detecting antibody pair that were used to detect Aβ 40 from cell supernatants were affinity purified pAb40 (Biosource) and biotinylated 6E10 (Signet Labs Inc.), respectively. The optimal concentration for the pAb40 antibody was 3 μg/ml in Superblock/TBS (Pierce) that was supplemented with 0.05% Tween 20 (Sigma).
Cellular supernatants were incubated with the capture antibody for 3 h at 4° C., followed by 3 wash steps in TBS-tween (0.05%). The detecting antibody incubation was for 2 h at 4° C., again followed by the wash steps as described previously. The final readout of the ELISA is Time-Resolved Fluorescence (counts per minute) using Delfia reagents Streptavidin-Europium and Enhancement solutions (Perkin Elmer) and the Victor 2 multilabel counter (Perkin Elmer).

[3] = target: Beta Secretase enzyme (BACE1) (Homo sapiens (Human), UniProt P56817); assay: In vitro enzymatic BACE FRET assay; format: biochemical
Method: In Vitro Enzymatic BACE FRET (Fluorescence Resonance Energy Transfer) Assay (Enzyme Assay Data in the Example Tables I and II)
The assay buffer used in this screen is 0.05 M acetate, pH 4.2, 10% DMSO final, 100 uM genapol (which is a nonionic detergent, below its Critical Micelle Concentration). […] This assay is effectively started by the addition of FRET substrate (50 nM) and the combination is incubated for one hour. The FRET assay is terminated with by addition of Tris buffer, which raises the pH to neutrality, and the fluorescence is determined. The FRET substrate is a peptide with commercially available fluorophore and quencher, on opposite sides of the BACE cleavage site. Proteolytic cleavage of the FRET substrate releases quenching of fluorescence (excitation […] and […]).

Sequence of Cathepsin D (Cat D) (P07339 65-412, species assumed): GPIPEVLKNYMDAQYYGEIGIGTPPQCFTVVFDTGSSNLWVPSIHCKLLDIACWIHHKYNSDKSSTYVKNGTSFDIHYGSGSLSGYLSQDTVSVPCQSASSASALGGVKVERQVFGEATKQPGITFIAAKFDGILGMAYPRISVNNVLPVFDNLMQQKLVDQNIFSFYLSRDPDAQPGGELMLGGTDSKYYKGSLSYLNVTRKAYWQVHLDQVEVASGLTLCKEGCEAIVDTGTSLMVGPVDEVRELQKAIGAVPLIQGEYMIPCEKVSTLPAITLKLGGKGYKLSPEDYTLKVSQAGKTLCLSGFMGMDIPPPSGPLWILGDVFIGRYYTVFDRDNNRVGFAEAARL
Sequence of Beta Secretase enzyme (BACE1) (P56817 46-501): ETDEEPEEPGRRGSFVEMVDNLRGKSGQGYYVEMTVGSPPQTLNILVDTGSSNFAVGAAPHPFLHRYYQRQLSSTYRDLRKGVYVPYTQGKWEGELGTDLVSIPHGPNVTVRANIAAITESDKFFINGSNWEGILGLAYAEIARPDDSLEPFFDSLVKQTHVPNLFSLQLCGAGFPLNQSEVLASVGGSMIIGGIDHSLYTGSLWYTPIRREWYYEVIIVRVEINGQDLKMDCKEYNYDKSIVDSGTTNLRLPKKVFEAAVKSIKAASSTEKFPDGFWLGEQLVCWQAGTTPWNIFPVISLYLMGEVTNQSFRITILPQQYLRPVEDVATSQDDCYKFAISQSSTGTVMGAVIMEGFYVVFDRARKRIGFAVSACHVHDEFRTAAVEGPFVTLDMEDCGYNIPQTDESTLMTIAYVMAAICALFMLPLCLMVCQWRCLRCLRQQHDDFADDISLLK

Molecule	IC50 (Cathepsin D (Cat D)) [nM]	IC50 ([2]; average IC50, cell assay) [nM]	IC50 ([3]; average IC50, enzyme assay) [nM]	IC50 ([2]; average IC50) [nM]	IC50 ([3]; average IC50) [nM]	further results
C[C@@]1(c2cc(-c3cncnc3)c(F)cc2F)CCSC(N)=N1 [LY2811376, (S)-4-(2,4-difluoro-5-pyrimidin-5-yl-phenyl)-4-methyl-5,6-dihydro-4H-[1,3]thiazin-2-ylamine]						Aβ reductions in lumbar CSF (Aβ in lumbar CSF): Prominent and long-lasting Aβ reductions in lumbar CSF
C[C@@]1(c2cc(-c3cncnc3)c(F)cc2F)CCSC(N)=N1 [LY 2811376]						rat toxicology finding [1]: damaged the pigment epithelium of the rat's eye
N-(3-((4aR,7aS)-3-amino-2,2-dimethyl-1,1-dioxido-7,7a-dihydro-2H-furo[3,4-b][1,4]thiazin-4a(5H)-yl)-4-fluorophenyl)-5-chloro-3-methyl-2-pyridinecarboxamide,N-(3-((4aS,7aR)-3-amino-2,2-dimethyl-1,1-dioxido-7,7a-dihydro-2H-furo[3,4-13][1,4]thiazin-4a(5H)-yl)-4-fluorophenyl)-5-chloro-3-methyl-2-pyridinecarboxamide [Example 427]	220000	33	1			
N-(3-((4aR,7aS)-3-amino-2,2-dimethyl-1,1-dioxido-7,7a-dihydro-2H-furo[3,4-b][1,4]thiazin-4a(5H)-yl)-4-fluorophenyl)-5-methoxy-3-methyl-2-pyridinecarboxamide,N-(3-((4aS,7aR)-3-amino-2,2-dimethyl-1,1-dioxido-7,7a-dihydro-2H-furo[3,4-13][1,4]thiazin-4a(5H)-yl)-4-fluorophenyl)-5-methoxy-3-methyl-2-pyridinecarboxamide [Example 428]	309000	37.3	9.71			

The next lines start with results.

IC50 (Cathepsin D (Cat D)) [nM]	IC50 ([2]; average IC50, cell assay) [nM]	IC50 ([3]; average IC50, enzyme assay) [nM]	IC50 ([2]; average IC50) [nM]	IC50 ([3]; average IC50) [nM]	Molecule	further results
363000			77.9	1.31	N-(3-((7R)-9-amino-7-(fluoromethyl)-5,5-dioxido-5-thia-8-azaspiro[3.5]non-8-en-7-yl)-4-fluorophenyl)-3-chloro-1,7-naphthyridin-8-amine,N-(3-((7S)-9-amino-7-(fluoromethyl)-5,5-dioxido-5-thia-8-azaspiro[3.5]non-8-en-7-yl)-4-fluorophenyl)-3-chloro-1,7-naphthyridin-8-amine [Example 243]	
170000			11.9	2.3	N-(3-((7R)-9-amino-7-(fluoromethyl)-5,5-dioxido-5-thia-8-azaspiro[3.5]non-8-en-7-yl)-4-fluorophenyl)-5-(difluoromethoxy)-3-methyl-2-pyridinecarboxamide,N-(3-((7S)-9-amino-7-(fluoromethyl)-5,5-dioxido-5-thia-8-azaspiro[3.5]non-8-en-7-yl)-4-fluorophenyl)-5-(difluoromethoxy)-3-methyl-2-pyridinecarboxamide [Example 410]	
